In patent US20200255492A1, “LEPTIN PEPTIDES AND THEIR USE FOR TREATING NEUROLOGICAL DISORDERS” (UNIVERSITY OF DUNDEE, priority 2017, published 2020):

Experiments:
[1] = system: mice; test: Murine episodic-like memory test with hexamers; type: in vivo; details: IP 7.8 nM/ml; tested 45 minutes post-injection; vs saline
Procedure: FIG. 24. Bar chart of the quantification of the fluorescent signal per cell following thioflavin S staining of neuronal cultures 96 hours after seeding with 1 μM Amyloid (Ab1-42). Cultures were established in triplicate on 3 separate occasions and statistical significance relative to control untreated cultures is denoted by *** where P<0.001 (A). […] 3 groups of mice (n=8 per group) were IP injected with saline (control) on 7.8 nM/ml leptin116-121 or […]. Memory performance was tested 45 minutes post-injection. Statistical significance relative to saline-injected animals is denoted by * where P<0.05. […] Leptin levels were determined by ELISA, using a commercially-supplied kit (Sigma, UK) and using blood serum harvested 24 hours post injection.
Further to this we have evaluated the effects of these hexamer peptides on episodic memory in mice. There is an 8 fold increase in episodic memory performance following treatment with leptin116-121 or […] (FIG. 24B). This implies that both leptin hexamers enhance the ability of the mice to recognise the presence of a novel object within the test arena.

[2] = system: SH-SY5Y neuronal cultures; test: Thioflavin S staining of amyloid after seeding with Aβ1-42; type: cell-based, human; details: 96 hours after seeding with 1 μM Aβ1-42; leptin116-130 1 nM
Procedure: The human neuroblastoma cell line, SH-SY5Y (ECACC, UK) was maintained in Dulbecco's Modified Eagle Medium supplemented with glucose ([…]) and 10% (v/v) cosmic calf serum (Fisher Scientific, UK) at 37° C. in a humidified atmosphere of 5% CO2, 95% air and allowed to reach 70-80% confluence before seeding. Cells (passage 10-18) were plated at 2×10^5 cells on 13 mm borosilicate class coverslips or at 10 000 cells per well in 96 well tissue culture plates (Nunc, VWR, UK) prior to treatment. Reagents used were (from Sigma UK unless stated) 1 nM human leptin, leptin (116-121), leptin (117-122) and leptin (117-125); 0.0001-1 nm murine leptin fragments leptin (116-121), leptin (117-122) and leptin (116-130); 100 μM 6-hydroxydopamine; 10 μM CuCl2; […]
After 96 hours, cultures were fixed for 15 minutes in neutral buffered formalin, washed in phosphate buffered saline and stained with 0.05% Thioflavin S for 10 minutes prior to washing in phosphate buffered saline and mounting for visualisation on a fluorescent microscope. Relative fluorescent intensity per cell was determined using post hoc image analysis with Fiji software. Quantitative data is presented as the mean fluorescence per cell relative to control untreated cells.

[3] = system: juvenile hippocampal slices (P13-21); test: Primed burst stimulation: conversion of STP into persistent increase in synaptic transmission (fEPSP); type: cell-based, Sprague Dawley rats; details: 50 nM, at 40 min
Procedure: Parasagittal hippocampal slices (300 μm) were prepared from either P13-21 or 12-24-week-old male Sprague Dawley rats as previously (Moult et al. 2010). Brains were rapidly removed and placed in ice-cold artificial CSF (aCSF; bubbled with 95% O2 and 5% CO2) containing the following (in mm): 124 NaCl, 3 KCl, 26 NaHCO3, 1.25 NaH2PO4, 2 CaCl2, 1 MgSO4, and 10 d-glucose. Once prepared, parasagittal slices were allowed to recover at room temperature in oxygenated aCSF for 1 h before use. Slices were transferred to a submerged chamber maintained at room temperature and perfused with artificial cerebrospinal fluid at 2 ml min^−1. Standard extracellular recordings were used to monitor evoked field excitatory postsynaptic potentials (fEPSP) from stratum radiatum. The Schaffer collateral-commissural pathway was stimulated (constant voltage; 0.1 ms) at 0.033 Hz, using a stimulus intensity that evoked a peak amplitude ˜50% of the maximum. Synaptic potentials were low pass filtered at 2 kHz and digitally sampled at 10 kHz. The fEPSP slope was measured and expressed relative to baseline. Synaptic records are the average of 4 consecutive responses and stimulus artefacts are blanked for clarity. Recordings were made using an Axopatch 200B amplifier and analyzed using LTP v2.4 software. In synaptic plasticity studies, the degree of potentiation was calculated 30-35 min after HFS and expressed as a percentage of baseline±standard error of mean (SEM).
It is known that NMDA receptors contribute little to basal excitatory synaptic transmission but synaptic activation of NMDA receptors is crucial for LTP induction at hippocampal synapses (Bliss and Collingridge 1993). Previous studies indicate that lep-tin enhances the magnitude of activity-dependent LTP in acute hippocampal slices (Oomura et al. 2006) and following direct administration into the hippocampus in vivo (Wayner et al. 2004). We have also shown that leptin facilitates NMDA receptor-dependent synaptic plasticity as leptin promotes conversion of short term potentiation (STP) to hippocampal LTP (Shanley et al. 2001). […]

Row | Substance | increase in episodic memory performance [1] | thioflavin S fluorescent signal per cell (amyloid accumulation) [2] | synaptic transmission after primed burst stimulation [3]
1 | SCSLPQ (listed as Mus musculus) [leptin (116-121)] | 8 fold | prevent the accumulation of amyloid beta | –
2 | leptin: the metabolic hormone leptin, whole (full length) leptin molecule; human leptin from Sigma in SH-SY5Y work | – | – | 155±6.1 % of baseline
3 | leptin (22-56): leptin fragment amino acids 22-56 (Bachem), comparison fragment (VPIQKVQDDTKTLIKTIVTRINDISHTQSVSSKQK; UniProt P41159 22-56, looked up, fragment) [reference compound] | – | – | only STP was observed
4 | SCSLPQTSGLQKPES (listed as Mus musculus) [leptin (116-130)] | – | amyloid propagation following seeding is greatly reduced | 143±6.4 % of baseline
5 | CSLPQT (listed as Mus musculus) [leptin (117-122)] | 8 fold | prevent the accumulation of amyloid beta | –
